Assays:
[1] = target: T1, Tau protein (full-length human Tau, hTau40) (Homo sapiens, UniProt P10636); assay: Tau intrinsic fluorescence quenching, modified Stern–Volmer binding parameters; details: 5 µM Tau, buffer B pH 6.8, mean ± SD; for Kd: read-out: Equilibrium Binding Constants to Tau, KD
T1 construct: The full-length human Tau (hTau40) was expressed in a transformed E. coli BL21 (DE3) strain; made in house; host or cells: E. coli BL21 (DE3)
Experimental: Fluorescence measurements were performed with a Horiba Jobin Yvon FluoroMax-3 spectrofluorometer. […] For experiments, the excitation wavelength was fixed at 275 nm, and the emission spectra were recorded between 280 nm and 500 nm at room temperature. The inner filter effects were corrected according to Lakowicz as follows:F = Fobs × exp{(Aem + Aex)/2}(2) where Fobs and F are the observed and corrected fluorescence values at the emission wavelength of 303 nm. Aex and Aem are the absorptions at the excitation and emission wavelengths, respectively, calculated with A = ε.l.C, in which ε is the extinction coefficient of Tau, l is the path length of cuvette, and C is Tau concentration.
The total fluorescence in the absence of quencher (F0) is given by:F0 = F0a + F0b(4) where 0 refers to the fluorescence intensity in the absence of quencher.
In the presence of quencher, we defined fa as the fraction of the initial fluorescence of Tau accessible to compounds:fa = F0a/(F0a + F0b)(5)
Therefore, the intensity of the accessible fraction (fa) is decreased according to the Stern–Volmer equation, whereas the buried fraction is not quenched, as given by:F = {F0a/(1 + K.[Q])} + F0b(6)
Then, subtraction of Equations (6) and (4) yields:ΔF = F0 − F = F0a × {K.[Q]/(1 + K.[Q])}(7)
At last, inversion of Equation (7) followed by division into Equation (4) yields:F0/ΔF = {1/(fa.K.[Q])} + 1/fa(8)
We applied this modified form of the Stern–Volmer equation to graphically determine the values of fa and K. For our experiments, we plotted F0/ΔF against 1/[Q], then we determined the fa value at the point of intersection with the y-axis, while the slope represented (faK)^−1.

[2] = tested on: U87 shTau cells; assay: Microtubule network analysis (alpha-tubulin immunofluorescence), U87 shTau; format: cell-based, human; details: 0–20 µM, 24 h
Experimental: For indirect immunofluorescence of mitochondria, 10^4 cells were plated on cover glass and incubated for 24 h with compounds. Cells were then fixed in 4% formaldehyde (in PBS pH 7.4) for 20 min at RT, permeabilized with PBS-Triton X-100 0.5% for 10 min at RT. Immunostaining was carried out overnight at 4 °C with a primary anti-citrate synthase antibody (dilution 1:400 in PBS-BSA 3%; SC390693; SantaCruz Biotechnologies, Heidelberg, Germany). […] Each image was recorded with the CLSM’s spectral mode selecting specific domains of the emission spectrum. The Alexafluor488 and FITC fluorophores were excited at 488 nm with an argon laser, and fluorescence emission was collected between 496 nm and 535 nm. The TRITC fluorophore was excited at 543 nm with a helium–neon laser, and fluorescence was collected between 560 and 620 nm. […]
The analyses of mitochondria and microtubule networks were performed using, respectively, the ‘Mitochondria analyzer’ plugin for Fiji v1.54f software and the method described in our earlier work. Briefly, a series of images were transferred to the software and corrected for background fluorescence intensity contribution. Next, the surface of 50 single cells was measured by considering the cell shape as the boundary of labelling of actin or α-tubulin cytoskeletons (respectively for measurement on mitochondria or microtubules). […]

[3] = tested on: U87 glioblastoma cells; assay: MTT cell viability assay, U87; format: cell-based, human; details: for IC50: Homo sapiens, U87, 72 h, MTT, mean ± SEM, read-out: IC50 (metabolic activity)
Experimental: Cells harvested from sub-confluent monolayers were seeded at 15,000 cells per mL in a 96-well microtiter plate (Cambridge Technology, Labège, France) and cultured for 24 h under standard conditions. Standard medium was then replaced by fresh medium containing no drugs or compounds at different concentrations. The surviving cells were quantified after 72 h by the MTT assay, according to the manufacturer’s instructions. Briefly, 20 µL of 3-(4,5-diMethylThiazol-2-yl)-2,5diphenyl Tetrazolium bromide (MTT) solution at 5 mg.mL^−1 was added to cells for 3 h at 37 °C. The supernatant was discarded and replaced by 100 µL of dimethyl sulfoxide to dissolve formazan crystals. The absorbance was then read at 600 nm by spectrophotometry. For all concentrations of a given compound, cell viability was expressed as the percentage of the ratio between the mean absorbance of treated cells and the mean absorbance of untreated cells. Three independent experiments were performed, and the data were expressed as percentage of survival (using the untreated cells as 100%) and subjected to statistical analysis (n = 3). The IC50 was calculated using the Chou and Talalay method.

T1 sequence (P10636 1-441 isoform P10636-8): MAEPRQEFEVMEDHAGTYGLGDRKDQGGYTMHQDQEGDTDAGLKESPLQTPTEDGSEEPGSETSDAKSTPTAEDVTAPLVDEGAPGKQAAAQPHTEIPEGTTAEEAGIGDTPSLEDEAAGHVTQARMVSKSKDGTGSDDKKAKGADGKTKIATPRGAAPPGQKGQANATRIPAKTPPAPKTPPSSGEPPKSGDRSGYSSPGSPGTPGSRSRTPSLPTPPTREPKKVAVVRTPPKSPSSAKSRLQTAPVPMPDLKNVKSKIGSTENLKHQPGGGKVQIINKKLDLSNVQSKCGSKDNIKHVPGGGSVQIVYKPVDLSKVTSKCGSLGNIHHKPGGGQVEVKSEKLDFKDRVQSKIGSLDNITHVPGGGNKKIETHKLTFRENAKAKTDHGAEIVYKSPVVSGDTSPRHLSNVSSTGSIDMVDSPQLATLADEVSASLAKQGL

Row | Equilibrium Binding Constants to Tau, fA (Tyr accessible fraction) [1] | Kd [1] [µM] | IC50 [3] [µM] | IC50 value fold lower than 1 ([3]; U87 cell line) | Compound | change of microtubule network [2]
1 | 0.14 ± 0.10 | 4.7 ± 1.8 | 1.9 ± 0.7 | up to 10 fold | Nc1nc2ccc3oc(-c4cccc(Oc5ccccc5)c4)cc(=O)c3c2s1 [Compound 2, 2-amino-7-(3-phenoxyphenyl)-9H-chromeno [6,5-d]thiazol-9-one] | no change
2 | 0.38 ± 0.01 | 6.4 ± 1.5 | > 100 |  | Nc1nc2ccc3oc(C(=O)O)cc(=O)c3c2s1 [Compound 5] | no change

Reference: paper PMC10606064, “2-Aminothiazole-Flavonoid Hybrid Derivatives Binding to Tau Protein and Responsible for Antitumor Activity in Glioblastoma” (International Journal of Molecular Sciences, 2023)
